Measured values taken from ChEMBL document CHEMBL1156404, “Haploscleridamine, a novel tryptamine-derived alkaloid from a sponge of the order haplosclerida: an inhibitor of cathepsin K” (J Nat Prod, 2002).

Molecular target: T1, Cathepsin K (Homo sapiens, UniProt P43235)
T1 sequence (P43235 whole entry): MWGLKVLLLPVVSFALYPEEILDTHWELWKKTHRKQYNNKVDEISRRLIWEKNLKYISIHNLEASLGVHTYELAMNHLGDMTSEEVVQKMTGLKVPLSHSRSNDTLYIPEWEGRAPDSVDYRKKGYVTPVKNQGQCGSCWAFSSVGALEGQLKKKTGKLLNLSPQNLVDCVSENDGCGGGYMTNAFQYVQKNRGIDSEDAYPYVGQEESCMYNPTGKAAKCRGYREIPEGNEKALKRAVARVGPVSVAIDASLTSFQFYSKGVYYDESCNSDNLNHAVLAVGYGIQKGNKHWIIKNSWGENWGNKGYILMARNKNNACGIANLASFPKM
Test: Inhibition of cathepsin K by fluorimetric assay

Row | SMILES | IC50 [µM]
1 | NCCc1c[nH]c2ccccc12 [TRYPTAMINE] | 15
2 | c1ccc2c3c([nH]c2c1)C(Cc1c[nH]cn1)NCC3 (configuration not stated) [HAPLOSCLERIDAMINE] | 26
